#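 Cultured in 96-well plates, cells were exposed to test compound for 48 hours across five concentrations. GI50 = concentration required for 50% inhibition of growth.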 Calls of active or inactive are those of the source. Rule as the data show it: active = GI50 up to about 1.1 µM and inactive = higher.
# What was measured:
# Experiment in all cases: NCI anticancer screen, dose series, 48 h
# SK-MEL-5 = system: SK-MEL-5
# OVCAR-8 = system: OVCAR-8
# OVCAR-3 = system: OVCAR-3
# SNB-75 = system: SNB-75
# TK-10 = system: TK-10
# 786-0 = system: 786-0
# SW-620 = system: SW-620
# CAKI-1 = system: CAKI-1
# HT-29 = system: HT-29
# RXF 393 = system: RXF 393
# SK-MEL-28 = system: SK-MEL-28
# OVCAR-5 = system: OVCAR-5
# SF-268 = system: SF-268
# SN12C = system: SN12C
# HL-60 = system: HL-60
# OVCAR-4 = system: OVCAR-4
# KM12 = system: KM12
# SF-539 = system: SF-539
# MCF7 = system: MCF7
# PC-3 = system: PC-3
# UACC-257 = system: UACC-257
# HOP-62 = system: HOP-62
# DU-145 = system: DU-145
# K562 = system: K562
# UO-31 = system: UO-31
# HCT-116 = system: HCT-116
# CCRF-CEM = system: CCRF-CEM
# NCI-H226 = system: NCI-H226
# M14 = system: M14
# HCT-15 = system: HCT-15
# MDA-MB-231 = system: MDA-MB-231
# T47D = system: T47D
# BT-549 = system: BT-549
# A498 = system: A498
# MDA-MB-435 = system: MDA-MB-435
# LOX IMVI = system: LOX IMVI
# HCC 2998 = system: HCC 2998
# A549 = system: A549
# IGROV-1 = system: IGROV-1
# SK-MEL-2 = system: SK-MEL-2
# ACHN = system: ACHN
# RPMI-8226 = system: RPMI-8226
# COLO 205 = system: COLO 205
# NCI-H460 = system: NCI-H460
# MOLT-4 = system: MOLT-4
# NCI-H522 = system: NCI-H522
# NCI-H23 = system: NCI-H23
# Hs-578T = system: Hs-578T
# SK-OV-3 = system: SK-OV-3
# SF-295 = system: SF-295
# Malme-3M = system: Malme-3M
# NCI/ADR-RES = system: NCI/ADR-RES
# U-251 = system: U-251
# EKVX = system: EKVX
# SNB-19 = system: SNB-19
# MDA-N = system: MDA-N
# UACC-62 = system: UACC-62
# HOP-92 = system: HOP-92
# SR = system: SR
structure (smiles),measurement,setting,value
CCN1CCc2sc3nc(S)n(C)c(=O)c3c2C1,GI50,SK-MEL-5,> 100 µM (inactive)
same,GI50,OVCAR-8,> 100 µM (inactive)
same,GI50,OVCAR-3,> 100 µM (inactive)
same,GI50,SNB-75,> 100 µM (inactive)
same,GI50,TK-10,> 100 µM (inactive)
same,GI50,786-0,> 100 µM (inactive)
same,GI50,SW-620,> 100 µM (inactive)
same,GI50,CAKI-1,> 100 µM (inactive)
same,GI50,HT-29,> 100 µM (inactive)
same,GI50,RXF 393,> 100 µM (inactive)
same,GI50,SK-MEL-28,> 100 µM (inactive)
same,GI50,OVCAR-5,> 100 µM (inactive)
same,GI50,SF-268,> 100 µM (inactive)
same,GI50,SN12C,> 100 µM (inactive)
same,GI50,HL-60,< 10 nM (active)
same,GI50,OVCAR-4,> 100 µM (inactive)
same,GI50,KM12,> 100 µM (inactive)
same,GI50,SF-539,> 100 µM (inactive)
same,GI50,MCF7,> 100 µM (inactive)
same,GI50,PC-3,> 100 µM (inactive)
same,GI50,UACC-257,> 100 µM (inactive)
same,GI50,HOP-62,> 100 µM (inactive)
same,GI50,DU-145,> 100 µM (inactive)
same,GI50,K562,> 100 µM (inactive)
same,GI50,UO-31,> 100 µM (inactive)
same,GI50,HCT-116,> 100 µM (inactive)
same,GI50,CCRF-CEM,< 10 nM (active)
same,GI50,NCI-H226,> 100 µM (inactive)
same,GI50,M14,> 100 µM (inactive)
same,GI50,HCT-15,> 100 µM
same,GI50,MDA-MB-231,> 100 µM (inactive)
same,GI50,T47D,> 100 µM (inactive)
same,GI50,BT-549,> 100 µM (inactive)
same,GI50,A498,> 100 µM (inactive)
same,GI50,MDA-MB-435,> 100 µM (inactive)
same,GI50,LOX IMVI,> 100 µM (inactive)
same,GI50,HCC 2998,> 100 µM (inactive)
same,GI50,A549,> 100 µM (inactive)
same,GI50,IGROV-1,> 100 µM (inactive)
same,GI50,SK-MEL-2,> 100 µM (inactive)
same,GI50,ACHN,> 100 µM (inactive)
same,GI50,RPMI-8226,> 100 µM (inactive)
same,GI50,COLO 205,> 100 µM (inactive)
same,GI50,NCI-H460,> 100 µM (inactive)
same,GI50,MOLT-4,> 100 µM (inactive)
same,GI50,NCI-H522,> 100 µM (inactive)
same,GI50,NCI-H23,> 100 µM (inactive)
same,GI50,Hs-578T,> 100 µM (inactive)
same,GI50,SK-OV-3,> 100 µM (inactive)
same,GI50,SF-295,> 100 µM (inactive)
same,GI50,Malme-3M,> 100 µM (inactive)
same,GI50,NCI/ADR-RES,> 100 µM (inactive)
same,GI50,U-251,> 100 µM (inactive)
same,GI50,EKVX,> 100 µM (inactive)
same,GI50,SNB-19,> 100 µM (inactive)
same,GI50,MDA-N,> 100 µM (inactive)
same,GI50,UACC-62,> 100 µM (inactive)
same,GI50,HOP-92,> 100 µM (inactive)
CCCCCCCC(CC(=O)O)OC(=O)CC(CCCCCCC)OC1OC(C)C(O)C(O)C1OC1OC(C)C(O)C(O)C1O (stereo unspecified),GI50,SK-MEL-5,> 100 µM (inactive)
same,GI50,OVCAR-8,> 100 µM (inactive)
same,GI50,OVCAR-3,> 100 µM (inactive)
same,GI50,SNB-75,> 100 µM (inactive)
same,GI50,786-0,> 100 µM (inactive)
same,GI50,SW-620,> 100 µM (inactive)
same,GI50,CAKI-1,> 100 µM (inactive)
same,GI50,HT-29,> 100 µM (inactive)
same,GI50,SK-MEL-28,44.6 µM (inactive)
same,GI50,OVCAR-5,> 100 µM (inactive)
same,GI50,SF-268,> 100 µM (inactive)
same,GI50,SN12C,> 100 µM (inactive)
same,GI50,KM12,> 100 µM (inactive)
same,GI50,SF-539,39 µM (inactive)
same,GI50,MCF7,> 100 µM (inactive)
same,GI50,PC-3,> 100 µM (inactive)
same,GI50,UACC-257,> 100 µM (inactive)
same,GI50,HOP-62,> 100 µM (inactive)
same,GI50,DU-145,> 100 µM (inactive)
same,GI50,K562,72.1 µM (inactive)
same,GI50,UO-31,> 100 µM (inactive)
same,GI50,HCT-116,> 100 µM (inactive)
same,GI50,CCRF-CEM,79400 nM (inactive)
same,GI50,SR,> 100 µM (inactive)
same,GI50,NCI-H226,> 100 µM (inactive)
same,GI50,M14,> 100 µM (inactive)
same,GI50,HCT-15,> 100 µM
same,GI50,MDA-MB-231,> 100 µM (inactive)
same,GI50,T47D,> 100 µM (inactive)
same,GI50,BT-549,> 100 µM (inactive)
same,GI50,A498,> 100 µM (inactive)
same,GI50,MDA-MB-435,> 100 µM (inactive)
same,GI50,LOX IMVI,> 100 µM (inactive)
same,GI50,HCC 2998,> 100 µM (inactive)
same,GI50,A549,> 100 µM (inactive)
same,GI50,IGROV-1,62.2 µM (inactive)
same,GI50,SK-MEL-2,> 100 µM (inactive)
same,GI50,ACHN,> 100 µM (inactive)
same,GI50,RPMI-8226,> 100 µM (inactive)
same,GI50,COLO 205,> 100 µM (inactive)
same,GI50,NCI-H460,> 100 µM (inactive)
same,GI50,MOLT-4,> 100 µM (inactive)
same,GI50,NCI-H522,> 100 µM (inactive)
same,GI50,NCI-H23,> 100 µM (inactive)
same,GI50,Hs-578T,67.6 µM (inactive)
same,GI50,SK-OV-3,> 100 µM (inactive)
same,GI50,SF-295,> 100 µM (inactive)
same,GI50,Malme-3M,43.2 µM (inactive)
same,GI50,NCI/ADR-RES,> 100 µM (inactive)
same,GI50,U-251,> 100 µM (inactive)
same,GI50,EKVX,> 100 µM (inactive)
same,GI50,SNB-19,> 100 µM (inactive)
same,GI50,MDA-N,> 100 µM (inactive)
same,GI50,UACC-62,> 100 µM (inactive)
same,GI50,HOP-92,> 100 µM (inactive)
CC(=O)O[C@H]1C(=O)[C@@]2(C)[C@H]([C@H](OC(=O)c3ccccc3)[C@]3(O)C[C@H](OC(=O)[C@H](O)[C@@H](NC(=O)CC(C)(C)C)c4ccccc4)C(C)=C1C3(C)C)C1(OC(C)=O)CO[C@@H]1C[C@@H]2O (stereo partly specified),GI50,SK-MEL-5,0.00213 µM (active)
same,GI50,OVCAR-8,0.00283 µM (active)
same,GI50,SNB-75,< 0.001 µM (active)
same,GI50,TK-10,0.047 µM (active)
same,GI50,786-0,0.0251 µM (active)
same,GI50,SW-620,0.00171 µM (active)
same,GI50,CAKI-1,0.128 µM (active)
same,GI50,HT-29,< 0.001 µM (active)
same,GI50,RXF 393,0.00796 µM (active)
same,GI50,SK-MEL-28,< 0.001 µM (active)
same,GI50,SF-268,0.0023 µM (active)
same,GI50,SN12C,0.00287 µM (active)
same,GI50,HL-60,1.05 nM (active)
same,GI50,OVCAR-4,> 10 µM (inactive)
same,GI50,SF-539,0.00127 µM (active)
same,GI50,MCF7,< 0.001 µM (active)
same,GI50,PC-3,0.00183 µM (active)
same,GI50,UACC-257,0.00684 µM (active)
same,GI50,HOP-62,0.00671 µM (active)
same,GI50,DU-145,0.00836 µM (active)
same,GI50,K562,0.00113 µM (active)
same,GI50,UO-31,3.96 µM (inactive)
same,GI50,HCT-116,< 0.001 µM (active)
same,GI50,CCRF-CEM,1.71 nM (active)
same,GI50,NCI-H226,0.0194 µM (active)
same,GI50,HCT-15,0.223 µM
same,GI50,MDA-MB-231,> 10 µM (inactive)
same,GI50,T47D,0.00908 µM (active)
same,GI50,BT-549,0.0968 µM (active)
same,GI50,A498,0.303 µM (active)
same,GI50,MDA-MB-435,< 0.001 µM (active)
same,GI50,LOX IMVI,0.00175 µM (active)
same,GI50,HCC 2998,0.00231 µM (active)
same,GI50,A549,0.00371 µM (active)
same,GI50,IGROV-1,0.00154 µM (active)
same,GI50,SK-MEL-2,0.002 µM (active)
same,GI50,ACHN,0.0764 µM (active)
same,GI50,RPMI-8226,< 0.001 µM (active)
same,GI50,COLO 205,0.0014 µM (active)
same,GI50,NCI-H460,0.00235 µM (active)
same,GI50,MOLT-4,0.00296 µM (active)
same,GI50,NCI-H522,0.00143 µM (active)
same,GI50,NCI-H23,0.00237 µM (active)
same,GI50,Hs-578T,< 0.001 µM (active)
same,GI50,SK-OV-3,0.00171 µM (active)
same,GI50,SF-295,0.0208 µM (active)
same,GI50,NCI/ADR-RES,4.26 µM (inactive)
same,GI50,U-251,0.00441 µM (active)
same,GI50,EKVX,0.193 µM (active)
same,GI50,SNB-19,0.122 µM (active)
same,GI50,MDA-N,0.1 µM (active)
same,GI50,UACC-62,0.00158 µM (active)
same,GI50,HOP-92,0.0106 µM (active)

# Source: ChEMBL document CHEMBL1201862, “PubChem BioAssay data set” (2004)
